Earlier results, collected in US11304902B2, “Pharmaceutical compositions, preparation and uses thereof” (CURADIGM SAS, priority 2014, dated 2022).
“Also recorded” adds a separate entry of the source.

Key:
Details in all cases: human CYP enzyme
CYP1B1 = biological target: T1, CYP1B1 (Homo sapiens, UniProt Q16678)
T1 sequence (Q16678 1-543): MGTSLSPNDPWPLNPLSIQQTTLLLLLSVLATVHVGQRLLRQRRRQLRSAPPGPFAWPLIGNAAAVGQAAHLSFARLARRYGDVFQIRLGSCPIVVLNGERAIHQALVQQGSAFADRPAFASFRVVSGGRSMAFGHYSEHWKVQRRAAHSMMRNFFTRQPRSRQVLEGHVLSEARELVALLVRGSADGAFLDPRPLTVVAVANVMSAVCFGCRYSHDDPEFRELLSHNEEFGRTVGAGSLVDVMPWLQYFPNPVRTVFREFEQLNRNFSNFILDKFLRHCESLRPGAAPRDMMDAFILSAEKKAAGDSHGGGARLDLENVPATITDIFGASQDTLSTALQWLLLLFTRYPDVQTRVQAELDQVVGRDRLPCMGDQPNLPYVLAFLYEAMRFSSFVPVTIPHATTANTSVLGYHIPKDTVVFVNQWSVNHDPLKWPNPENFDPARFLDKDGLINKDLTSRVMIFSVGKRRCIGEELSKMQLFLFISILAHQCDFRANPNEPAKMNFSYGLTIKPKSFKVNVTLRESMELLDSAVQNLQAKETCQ

CYP1A2 = biological target: T2, CYP1A2 (Homo sapiens, UniProt P05177)
T2 sequence (P05177 1-516): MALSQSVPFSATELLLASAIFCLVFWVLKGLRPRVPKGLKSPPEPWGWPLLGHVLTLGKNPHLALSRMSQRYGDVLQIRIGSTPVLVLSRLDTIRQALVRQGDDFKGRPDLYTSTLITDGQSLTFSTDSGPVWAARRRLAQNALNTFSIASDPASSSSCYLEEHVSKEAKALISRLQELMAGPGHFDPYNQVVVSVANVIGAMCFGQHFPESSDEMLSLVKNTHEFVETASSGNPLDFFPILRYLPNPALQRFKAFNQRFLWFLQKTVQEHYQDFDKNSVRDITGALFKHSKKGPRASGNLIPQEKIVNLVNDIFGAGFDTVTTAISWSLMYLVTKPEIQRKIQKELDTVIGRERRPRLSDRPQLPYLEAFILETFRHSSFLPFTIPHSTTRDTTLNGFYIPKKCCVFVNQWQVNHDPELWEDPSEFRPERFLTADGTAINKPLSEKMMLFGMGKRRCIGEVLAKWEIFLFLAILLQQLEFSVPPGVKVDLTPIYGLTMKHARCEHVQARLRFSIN

CYP2A6 = biological target: T3, CYP2A6 (Homo sapiens, UniProt P11509)
T3 sequence (P11509 1-494): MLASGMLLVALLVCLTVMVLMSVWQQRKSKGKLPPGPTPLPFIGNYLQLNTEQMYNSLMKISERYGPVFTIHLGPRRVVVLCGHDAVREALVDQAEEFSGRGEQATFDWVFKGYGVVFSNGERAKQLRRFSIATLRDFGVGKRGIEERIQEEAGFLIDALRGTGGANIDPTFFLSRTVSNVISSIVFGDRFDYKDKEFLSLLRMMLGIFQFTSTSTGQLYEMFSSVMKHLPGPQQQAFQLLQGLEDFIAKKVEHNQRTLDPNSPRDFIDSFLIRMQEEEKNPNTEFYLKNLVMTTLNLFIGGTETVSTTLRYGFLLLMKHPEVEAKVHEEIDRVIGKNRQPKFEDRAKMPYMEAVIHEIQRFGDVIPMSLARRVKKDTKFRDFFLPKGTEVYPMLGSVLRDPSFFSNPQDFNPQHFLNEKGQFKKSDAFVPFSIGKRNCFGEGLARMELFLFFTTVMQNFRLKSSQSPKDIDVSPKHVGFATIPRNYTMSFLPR

CYP4B1 = CYP4B1 (Homo sapiens, UniProt P13584)
Sequence of CYP4B1 (P13584 whole entry): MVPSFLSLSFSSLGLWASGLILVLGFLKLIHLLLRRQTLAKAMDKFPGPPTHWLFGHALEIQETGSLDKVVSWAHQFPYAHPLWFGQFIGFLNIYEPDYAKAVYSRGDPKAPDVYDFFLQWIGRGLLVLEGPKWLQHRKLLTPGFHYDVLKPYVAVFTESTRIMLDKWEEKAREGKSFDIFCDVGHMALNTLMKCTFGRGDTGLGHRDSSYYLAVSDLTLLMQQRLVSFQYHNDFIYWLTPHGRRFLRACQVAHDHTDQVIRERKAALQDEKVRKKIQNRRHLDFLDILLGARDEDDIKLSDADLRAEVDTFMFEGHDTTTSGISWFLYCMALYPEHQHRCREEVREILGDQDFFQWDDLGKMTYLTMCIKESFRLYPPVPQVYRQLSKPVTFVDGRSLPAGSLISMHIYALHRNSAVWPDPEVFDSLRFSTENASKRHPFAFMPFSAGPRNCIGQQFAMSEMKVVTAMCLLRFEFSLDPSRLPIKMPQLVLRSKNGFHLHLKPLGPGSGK

CYP2C19 = CYP2C19 (Homo sapiens, UniProt P33261)
Sequence of CYP2C19 (P33261 whole entry): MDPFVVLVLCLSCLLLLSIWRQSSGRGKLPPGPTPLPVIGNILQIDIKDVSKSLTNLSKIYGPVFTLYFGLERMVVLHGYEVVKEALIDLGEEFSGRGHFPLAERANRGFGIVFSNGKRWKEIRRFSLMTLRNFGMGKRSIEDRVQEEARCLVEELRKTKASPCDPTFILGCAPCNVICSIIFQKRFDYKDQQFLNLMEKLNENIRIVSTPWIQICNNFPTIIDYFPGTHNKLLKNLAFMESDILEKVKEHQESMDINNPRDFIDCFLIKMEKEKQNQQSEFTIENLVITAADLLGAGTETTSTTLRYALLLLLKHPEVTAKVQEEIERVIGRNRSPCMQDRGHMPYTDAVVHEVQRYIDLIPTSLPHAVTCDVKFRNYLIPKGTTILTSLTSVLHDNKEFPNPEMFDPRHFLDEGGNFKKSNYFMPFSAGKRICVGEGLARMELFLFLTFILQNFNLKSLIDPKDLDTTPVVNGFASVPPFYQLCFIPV

CYP4F12 = biological target: T4, CYP4F12 (Homo sapiens, UniProt Q9HCS2)
T4 sequence (Q9HCS2 1-524): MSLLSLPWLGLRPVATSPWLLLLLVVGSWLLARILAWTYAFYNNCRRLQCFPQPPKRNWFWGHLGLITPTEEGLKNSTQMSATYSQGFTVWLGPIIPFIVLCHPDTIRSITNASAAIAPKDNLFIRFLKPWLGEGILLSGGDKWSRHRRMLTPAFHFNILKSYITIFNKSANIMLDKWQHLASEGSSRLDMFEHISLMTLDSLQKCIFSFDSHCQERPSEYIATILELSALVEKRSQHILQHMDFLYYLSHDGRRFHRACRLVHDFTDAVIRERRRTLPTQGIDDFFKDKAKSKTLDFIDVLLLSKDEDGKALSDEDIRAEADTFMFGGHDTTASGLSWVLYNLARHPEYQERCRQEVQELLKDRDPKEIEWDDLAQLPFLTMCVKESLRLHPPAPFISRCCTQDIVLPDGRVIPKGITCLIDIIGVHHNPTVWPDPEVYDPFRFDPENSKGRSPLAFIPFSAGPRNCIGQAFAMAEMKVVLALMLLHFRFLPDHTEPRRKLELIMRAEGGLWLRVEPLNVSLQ

CYP2E1 = CYP2E1 (Homo sapiens, UniProt P05181)
Sequence of CYP2E1 (P05181 whole entry): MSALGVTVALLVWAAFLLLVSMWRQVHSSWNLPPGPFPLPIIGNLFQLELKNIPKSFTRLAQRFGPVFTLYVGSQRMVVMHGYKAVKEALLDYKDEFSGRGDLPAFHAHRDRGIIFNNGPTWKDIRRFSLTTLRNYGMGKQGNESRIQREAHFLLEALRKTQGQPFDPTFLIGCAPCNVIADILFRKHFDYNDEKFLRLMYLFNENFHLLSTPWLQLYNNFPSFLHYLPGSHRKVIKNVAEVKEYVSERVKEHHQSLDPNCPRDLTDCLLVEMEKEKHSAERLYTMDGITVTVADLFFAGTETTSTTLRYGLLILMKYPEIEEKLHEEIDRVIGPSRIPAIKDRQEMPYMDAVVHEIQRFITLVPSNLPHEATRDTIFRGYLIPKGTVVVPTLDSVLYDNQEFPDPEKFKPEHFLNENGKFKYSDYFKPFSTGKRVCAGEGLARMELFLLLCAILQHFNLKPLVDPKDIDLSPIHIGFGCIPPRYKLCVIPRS

CYP4A11 = biological target: T5, CYP4A11 (Homo sapiens, UniProt Q02928)
T5 sequence (Q02928 5-519): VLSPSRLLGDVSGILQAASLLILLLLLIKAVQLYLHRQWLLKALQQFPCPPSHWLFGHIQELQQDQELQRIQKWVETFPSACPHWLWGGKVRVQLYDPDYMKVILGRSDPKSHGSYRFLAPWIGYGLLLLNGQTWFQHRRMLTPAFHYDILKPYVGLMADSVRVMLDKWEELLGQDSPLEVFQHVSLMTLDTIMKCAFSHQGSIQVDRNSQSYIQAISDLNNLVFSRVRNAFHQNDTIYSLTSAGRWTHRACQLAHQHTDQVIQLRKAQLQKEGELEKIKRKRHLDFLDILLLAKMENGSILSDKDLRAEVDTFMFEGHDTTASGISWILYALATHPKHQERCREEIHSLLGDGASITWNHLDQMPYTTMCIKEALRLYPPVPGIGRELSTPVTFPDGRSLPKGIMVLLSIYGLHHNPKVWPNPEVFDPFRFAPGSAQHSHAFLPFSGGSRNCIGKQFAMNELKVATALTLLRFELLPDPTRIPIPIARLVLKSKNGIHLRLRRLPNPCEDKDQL

## CCCCC/C=C\C/C=C\C/C=C\C/C=C\CCCC(=O)O [Arachidonic acid, arachidonic acid]
CYP1B1
  role towards CYP1B1 (substrate / inhibitor / inducer): Inhibitor
CYP1A2
  role towards CYP1A2 (substrate / inhibitor / inducer): Substrate; also recorded: Inhibitor
CYP2A6
  role towards CYP2A6 (substrate / inhibitor / inducer): Substrate
CYP4B1
  role towards CYP4B1 (substrate / inhibitor / inducer): Substrate
CYP2C19
  role towards CYP2C19 (substrate / inhibitor / inducer): Substrate
CYP4F12
  role towards CYP4F12 (substrate / inhibitor / inducer): Substrate
CYP2E1
  role towards CYP2E1 (substrate / inhibitor / inducer): Inhibitor
CYP4A11
  role towards CYP4A11 (substrate / inhibitor / inducer): Substrate
